The target of one assay is T1, human TLR7 (hTLR7) (Homo sapiens, UniProt Q9NYK1).
T1 construct: host or cells: HEK-Blue TLR7 cells (engineered human embryonic kidney cells)
T1 sequence (Q9NYK1 27-1049): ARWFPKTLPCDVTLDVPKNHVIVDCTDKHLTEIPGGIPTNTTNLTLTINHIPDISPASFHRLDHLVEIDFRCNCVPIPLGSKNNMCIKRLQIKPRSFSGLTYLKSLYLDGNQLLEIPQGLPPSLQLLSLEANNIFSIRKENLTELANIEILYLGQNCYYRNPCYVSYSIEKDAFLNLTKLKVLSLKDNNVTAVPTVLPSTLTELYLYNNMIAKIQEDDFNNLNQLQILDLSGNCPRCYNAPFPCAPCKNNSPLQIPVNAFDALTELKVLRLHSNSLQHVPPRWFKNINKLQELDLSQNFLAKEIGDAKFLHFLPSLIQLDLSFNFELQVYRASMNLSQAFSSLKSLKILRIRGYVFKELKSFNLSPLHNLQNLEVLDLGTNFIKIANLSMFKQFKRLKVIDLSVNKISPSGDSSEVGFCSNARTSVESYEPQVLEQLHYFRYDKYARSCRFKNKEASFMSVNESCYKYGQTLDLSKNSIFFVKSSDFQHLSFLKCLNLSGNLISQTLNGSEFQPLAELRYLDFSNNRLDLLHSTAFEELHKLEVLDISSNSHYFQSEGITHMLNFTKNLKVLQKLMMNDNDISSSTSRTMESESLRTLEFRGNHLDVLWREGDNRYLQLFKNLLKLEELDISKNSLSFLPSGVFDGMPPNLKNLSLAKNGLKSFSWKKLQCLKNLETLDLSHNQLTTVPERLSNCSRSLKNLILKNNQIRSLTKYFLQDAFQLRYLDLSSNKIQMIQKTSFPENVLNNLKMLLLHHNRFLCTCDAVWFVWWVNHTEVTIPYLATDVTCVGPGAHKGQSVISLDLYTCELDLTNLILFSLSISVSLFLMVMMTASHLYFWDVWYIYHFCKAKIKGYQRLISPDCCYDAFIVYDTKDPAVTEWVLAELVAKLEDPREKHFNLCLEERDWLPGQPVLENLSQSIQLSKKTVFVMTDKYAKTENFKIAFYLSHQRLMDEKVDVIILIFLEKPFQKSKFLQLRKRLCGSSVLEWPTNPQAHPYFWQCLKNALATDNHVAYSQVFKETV
Briefly: Human TLR7 agonist activity assay (HEK-Blue TLR7 SEAP reporter). The settings on record: HEK-Blue TLR7 cells, 18 h incubation, Quanti-Blue, OD 620 nm, some values average of multiple measurements. It counts as cell-based. A digest of the protocol:
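HEK-Blue TLR7 cells seeded 16-18 h, then exposed to compound for 18 h at 37 °C, 5% CO2. Secreted SEAP read with Quanti-Blue at OD 620 nm after 30 min. EC50 taken as concentration giving half-maximal response between baseline and maximum; some values averaged over repeats.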

For a further assay, the target named is T2, human TLR8 (hTLR8) (Homo sapiens, UniProt Q9NR97).
T2 construct: expressed in transfected cells
T2 sequence (Q9NR97 27-1041): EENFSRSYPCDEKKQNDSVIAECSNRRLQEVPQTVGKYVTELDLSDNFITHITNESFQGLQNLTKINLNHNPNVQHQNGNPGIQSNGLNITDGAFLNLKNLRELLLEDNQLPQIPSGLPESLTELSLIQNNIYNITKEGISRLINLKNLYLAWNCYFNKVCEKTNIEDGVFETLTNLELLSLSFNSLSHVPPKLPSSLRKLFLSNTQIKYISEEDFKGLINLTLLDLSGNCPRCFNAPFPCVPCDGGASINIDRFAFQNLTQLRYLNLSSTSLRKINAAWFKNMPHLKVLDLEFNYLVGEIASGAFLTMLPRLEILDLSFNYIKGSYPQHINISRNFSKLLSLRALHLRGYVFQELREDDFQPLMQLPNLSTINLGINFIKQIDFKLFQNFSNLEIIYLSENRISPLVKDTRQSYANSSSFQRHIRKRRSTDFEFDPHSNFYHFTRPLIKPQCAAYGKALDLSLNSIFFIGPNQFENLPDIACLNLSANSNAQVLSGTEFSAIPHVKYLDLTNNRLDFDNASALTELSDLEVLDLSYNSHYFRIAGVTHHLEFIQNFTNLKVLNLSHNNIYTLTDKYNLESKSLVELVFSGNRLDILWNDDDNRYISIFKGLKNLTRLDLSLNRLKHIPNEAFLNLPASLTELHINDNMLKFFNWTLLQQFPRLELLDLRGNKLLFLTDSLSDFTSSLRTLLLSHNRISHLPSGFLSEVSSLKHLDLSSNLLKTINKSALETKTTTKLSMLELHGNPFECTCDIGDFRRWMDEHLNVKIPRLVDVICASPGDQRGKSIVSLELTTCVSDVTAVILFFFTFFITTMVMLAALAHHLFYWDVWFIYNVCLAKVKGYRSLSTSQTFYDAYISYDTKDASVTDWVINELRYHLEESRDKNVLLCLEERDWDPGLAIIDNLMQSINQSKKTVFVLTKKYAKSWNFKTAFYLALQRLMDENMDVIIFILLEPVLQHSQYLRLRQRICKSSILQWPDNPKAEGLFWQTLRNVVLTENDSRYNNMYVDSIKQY
Briefly: Human TLR8 agonist activity assay (measured in a similar manner). The settings on record: HEK-Blue TLR cells, SEAP reporter, measured in a similar manner to TLR7; some values average of multiple measurements. It counts as cell-based. Summed up:
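Compounds were added to HEK-Blue TLR8 reporter cells, pre-incubated 16-18 h, then treated 18 h at 37° C, 5% CO2. SEAP output was measured with Quanti-Blue (30 min) at OD 620 nm. Some values are averages of multiple measurements.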

In general, EC50 refers to the concentration needed to bring the measured effect to its halfway point. Read a low EC50 as an effect from little substance. As for `CCCCN(c1nc(N)nc2cn(Cc3c(F)cc(C4CCN(C5CC6(COC6)C5)CC4)cc3OC)nc12)C(C)CO` (stereo not drawn) [Compound 164], the figures for the EC50 on human TLR7 (hTLR7) and on human TLR8 (hTLR8) were 196 nM and 614 nM, respectively.
In the case of `CCCCN(CCO)c1nc(N)nc2cn(Cc3ccc(CNC4C[C@@H](C)O[C@@H](C)C4)cc3OC)nc12` (stereo partly drawn) [Compound 166], the EC50 at human TLR7 (hTLR7) was 694 nM; on human TLR8 (hTLR8) it was 529 nM.
With `CCCCN(CCO)c1nc(N)nc2cn(Cc3ccc(CN[C@H]4CCCN(C)C4)c4cccnc34)nc12` [Compound 168], the 50% effective concentration (EC50) came to 587 nM on human TLR7 (hTLR7) and 1100 nM on human TLR8 (hTLR8).
As to `CCCCN(CCO)c1nc(N)nc2cn(Cc3ccc(CN[C@H]4CC[C@H](O)CC4)c4cccnc34)nc12` [Compound 169], the EC50 on human TLR7 (hTLR7) came to 1090 nM; at human TLR8 (hTLR8), 628 nM.
Turning to `COc1cc(CN[C@H]2C[C@H](OC)C2)ccc1Cn1cc2nc(N)nc(N(CCO)CCCCF)c2n1` [Compound 170], the results for the EC50 at human TLR7 (hTLR7) and at human TLR8 (hTLR8) were 1800 nM and 2500 nM, respectively.
Take `CCCCN(CCO)c1nc(N)nc2cn(Cc3ccc(CNC4CCOCC4)n4ncnc34)nc12` [Compound 171]: the EC50 at human TLR7 (hTLR7) was 1700 nM; on human TLR8 (hTLR8), 1900 nM.
The like results for `CCCCN(CCO)c1nc(N)nc2cn(Cc3ccc(CN[C@@H]4CCOC4)n4ncnc34)nc12` [Compound 172] were, in that order, 870 nM and 1350 nM.
The corresponding values for `COc1cc(CN[C@@H]2CCOC2)ccc1Cn1cc2nc(N)nc(N(CCO)CCCCF)c2n1` [Compound 173] are 2630 nM and 3130 nM.
With `CCCCN(CCO)c1nc(N)nc2cn(Cc3ccc(CN[C@H]4C[C@H](OC)C4)n4ncnc34)nc12` [Compound 174], the EC50 was found to be 757 nM at human TLR7 (hTLR7) and 1450 nM at human TLR8 (hTLR8).
As to `CCCCN(CCO)c1nc(N)nc2cn(Cc3ccc(CNC4CCC4)n4ncnc34)nc12` [Compound 175, 2-((5-Amino-2-((5-((cyclobutylamino)methyl)-[1,2,4]triazolo[1,5-a]pyridin-8-yl)methyl)-2H-pyrazolo[4,3-d]pyrimidin-7-yl)(butyl)amino)ethan-1-ol], the EC50 on human TLR7 (hTLR7) came to 307 nM; at human TLR8 (hTLR8), 328 nM.
In the case of `COc1cc(CNC2CCC2)ccc1Cn1cc2nc(N)nc(N(CCO)CCCCF)c2n1` [Compound 176], the EC50 was determined as 1640 nM on human TLR7 (hTLR7) and 1950 nM at human TLR8 (hTLR8).
For the compound `CCCCN(CCO)c1nc(N)nc2cn(Cc3ccc(CO)n4ncnc34)nc12` [Compound 177], the EC50 is 949 nM on human TLR7 (hTLR7) and 1460 nM at human TLR8 (hTLR8).
As to `CCCCN(c1nc(N)nc2cn(Cc3c(F)cc(C4CCN(C5CC6(COC6)C5)CC4)cc3OC)nc12)C(C)CO` (stereo not drawn) [Compound 179], the EC50 was found to be 121 nM at human TLR7 (hTLR7) and 213 nM at human TLR8 (hTLR8).
Turning to `CCCCN(CCO)c1nc(N)nc2cn(Cc3ccc(CNC4CCOCC4)c4scnc34)nc12` [Compound 180, 2-((5-Amino-2-((7-(((tetrahydro-2H-pyran-4-yl)amino)methyl)benzo[d]thiazol-4-yl)methyl)-2H-pyrazolo[4,3-d]pyrimidin-7-yl)(butyl)amino)ethan-1-ol], the values for the EC50 on human TLR7 (hTLR7) and on human TLR8 (hTLR8) were 294 nM and 230 nM, respectively.
In the case of `CCCCN(CCO)c1nc(N)nc2cn(Cc3ncc(CNC4CCC4)cc3OC)nc12` [Compound 182], the EC50 at human TLR7 (hTLR7) is 865 nM; on human TLR8 (hTLR8), 1770 nM.
Regarding `CCCCN(CCO)c1nc(N)nc2cn(Cc3ccc(CNC4CCC4)c4scnc34)nc12` [Compound 184], the EC50 on human TLR7 (hTLR7) was found to be 401 nM; on human TLR8 (hTLR8), 310 nM.
For the compound `CCCCN(CCO)c1nc(N)nc2cn(Cc3ccc(CN[C@@H]4CCCN(C(=O)OC)C4)c4cccnc34)nc12` [Compound 185, Methyl (R)-3-(((8-((5-amino-7-(butyl(2-hydroxyethyl)amino)-2H-pyrazolo[4,3-d]pyrimidin-2-yl)methyl)quinolin-5-yl)methyl)amino) piperidine-1-carboxylate], the EC50 at human TLR7 (hTLR7) amounted to 499 nM; at human TLR8 (hTLR8), 508 nM.
On to `CCCCN(CCO)c1nc(N)nc2cn(Cc3ccc(CN[C@@H]4CCCN(C(C)=O)C4)c4cccnc34)nc12` [Compound 186], for which the EC50 came out at 1690 nM on human TLR7 (hTLR7) and 3490 nM on human TLR8 (hTLR8).

For the origin of these results see US20250282776A1, “Bicyclic TLR7 Agonists and Uses Thereof” (Bristol-Myers Squibb Company, priority 2024, published 2025).
